The structures appear in SMILES notation. ± gives the expanded uncertainty stated by the source.

For the series the following is noted: 293.15 K; 101.33 kPa; Liquid; Other PVT measurement.
The term mass density denotes the mass of a sample divided by its volume. In the case of `C1CCC(C2CCCCC2)CC1` [1,1'-bicyclohexyl], the mass density is listed as 890 ± 10 kg/m3.

As for `CCCC1CCCCC1` [1-cyclohexylpropane], the mass density turned out to be 790 ± 10 kg/m3.

Consider `c1ccccc1` [benzene], for which the mass density is recorded as 877 ± 10 kg/m3.

Consider `C1CCCCC1` [cyclohexane], for which the mass density turned out to be 778 ± 10 kg/m3.

In the case of `c1ccc(C2CCCCC2)cc1` [cyclohexylbenzene], the mass density is given as 940 ± 10 kg/m3.

As to `CCCCCCCCCCCC` [dodecane], the mass density turned out to be 753 ± 10 kg/m3.

On to `CCCCCCCCCCCCCCCC` [hexadecane], for which the mass density stood at 773 ± 10 kg/m3.

Take `CCCCCC` [hexane]: the mass density was 659 ± 10 kg/m3.

As for `CCCCCCC1CCCCC1` [hexylcyclohexane], the mass density came to 810 ± 10 kg/m3.

Turning to `CCCCCCCCC` [nonane], the mass density is 718 ± 10 kg/m3.

As for `CCCCCCCCCCCCCC` [tetradecane], the mass density is 767 ± 10 kg/m3.

The values are drawn from the NIST ThermoML archive (doi:10.1016/j.fluid.2017.02.010).
